{"source": "the kinase profiling compilation of Christmann-Franck et al. (2016)", "test_in_all_cases": "KINOMEscan competition binding", "settings_in_all_cases": "compound 10.0 µM", "key": {"[1]": {"system": "ABL1 (human), P00519 [M351T]"}, "AKT1 (human)": {"target": "AKT1 (human) (UniProt P31749)"}, "AURKC (human)": {"target": "AURKC (human) (UniProt Q9UQB9)"}, "BMP2K (human)": {"target": "BMP2K (human) (UniProt Q9NSY1)"}, "BMPR1B (human)": {"target": "BMPR1B (human) (UniProt O00238)"}, "CDC2L2 (human)": {"target": "CDC2L2 (human) (UniProt Q9UQ88)"}, "CDC42BPG (human)": {"target": "CDC42BPG (human) (UniProt Q6DT37)"}, "CDK5 (human)": {"target": "CDK5 (human) (UniProt Q00535)"}, "CDK9 (human)": {"target": "CDK9 (human) (UniProt P50750)"}, "DAPK3 (human)": {"target": "DAPK3 (human) (UniProt O43293)"}, "[2]": {"system": "EGFR (human), P00533 [747-751 del / S ins]", "sequence (P00533 whole entry, looked up, stated change not applied)": "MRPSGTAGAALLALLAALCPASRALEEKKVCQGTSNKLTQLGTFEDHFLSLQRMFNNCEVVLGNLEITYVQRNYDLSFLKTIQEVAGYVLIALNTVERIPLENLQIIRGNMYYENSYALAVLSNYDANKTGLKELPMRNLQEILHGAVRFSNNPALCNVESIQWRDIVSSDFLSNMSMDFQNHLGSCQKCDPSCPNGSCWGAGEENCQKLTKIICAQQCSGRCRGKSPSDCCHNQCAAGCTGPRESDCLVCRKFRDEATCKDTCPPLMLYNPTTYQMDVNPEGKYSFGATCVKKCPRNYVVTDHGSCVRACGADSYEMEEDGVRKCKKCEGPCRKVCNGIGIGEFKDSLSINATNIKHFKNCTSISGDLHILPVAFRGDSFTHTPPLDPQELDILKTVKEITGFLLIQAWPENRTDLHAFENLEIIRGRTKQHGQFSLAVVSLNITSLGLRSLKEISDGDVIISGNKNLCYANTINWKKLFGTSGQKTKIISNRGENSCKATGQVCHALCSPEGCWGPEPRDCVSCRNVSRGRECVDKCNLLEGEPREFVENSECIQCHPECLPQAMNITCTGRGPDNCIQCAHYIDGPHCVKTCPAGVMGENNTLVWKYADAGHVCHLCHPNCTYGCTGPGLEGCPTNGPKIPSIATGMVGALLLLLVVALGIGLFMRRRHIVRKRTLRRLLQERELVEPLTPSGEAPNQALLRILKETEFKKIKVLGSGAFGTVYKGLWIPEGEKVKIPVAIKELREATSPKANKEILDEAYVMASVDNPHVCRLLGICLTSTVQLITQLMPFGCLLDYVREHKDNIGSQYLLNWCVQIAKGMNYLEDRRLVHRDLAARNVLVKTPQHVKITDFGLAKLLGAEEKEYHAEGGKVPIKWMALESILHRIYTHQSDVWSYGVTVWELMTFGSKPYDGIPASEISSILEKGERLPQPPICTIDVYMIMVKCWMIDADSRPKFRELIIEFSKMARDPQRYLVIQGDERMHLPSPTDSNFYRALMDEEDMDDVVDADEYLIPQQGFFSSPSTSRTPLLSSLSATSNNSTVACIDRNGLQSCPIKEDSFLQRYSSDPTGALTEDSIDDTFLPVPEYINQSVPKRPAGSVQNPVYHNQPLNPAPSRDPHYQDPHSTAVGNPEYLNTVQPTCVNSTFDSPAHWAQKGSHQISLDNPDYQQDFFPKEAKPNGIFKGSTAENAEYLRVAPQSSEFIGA"}, "[3]": {"system": "EIF2AK4 KD2 (human), Q9P2K8 [S808G]"}, "EPHA7 (human)": {"target": "EPHA7 (human) (UniProt Q15375)"}, "FES (human)": {"target": "FES (human) (UniProt P07332)"}, "FLT4 (human)": {"target": "FLT4 (human) (UniProt P35916)"}, "FYN (human)": {"target": "FYN (human) (UniProt P06241)"}, "[4]": {"system": "KIT (human), P10721 [V559D]"}, "LIMK2 (human)": {"target": "LIMK2 (human) (UniProt P53671)"}, "LTK (human)": {"target": "LTK (human) (UniProt P29376)"}, "MAP3K10 (human)": {"target": "MAP3K10 (human) (UniProt Q02779)"}, "MAP4K3 (human)": {"target": "MAP4K3 (human) (UniProt Q8IVH8)"}, "MAP4K4 (human)": {"target": "MAP4K4 (human) (UniProt O95819)"}, "MARK3 (human)": {"target": "MARK3 (human) (UniProt P27448)", "sequence (P27448 whole entry, looked up)": "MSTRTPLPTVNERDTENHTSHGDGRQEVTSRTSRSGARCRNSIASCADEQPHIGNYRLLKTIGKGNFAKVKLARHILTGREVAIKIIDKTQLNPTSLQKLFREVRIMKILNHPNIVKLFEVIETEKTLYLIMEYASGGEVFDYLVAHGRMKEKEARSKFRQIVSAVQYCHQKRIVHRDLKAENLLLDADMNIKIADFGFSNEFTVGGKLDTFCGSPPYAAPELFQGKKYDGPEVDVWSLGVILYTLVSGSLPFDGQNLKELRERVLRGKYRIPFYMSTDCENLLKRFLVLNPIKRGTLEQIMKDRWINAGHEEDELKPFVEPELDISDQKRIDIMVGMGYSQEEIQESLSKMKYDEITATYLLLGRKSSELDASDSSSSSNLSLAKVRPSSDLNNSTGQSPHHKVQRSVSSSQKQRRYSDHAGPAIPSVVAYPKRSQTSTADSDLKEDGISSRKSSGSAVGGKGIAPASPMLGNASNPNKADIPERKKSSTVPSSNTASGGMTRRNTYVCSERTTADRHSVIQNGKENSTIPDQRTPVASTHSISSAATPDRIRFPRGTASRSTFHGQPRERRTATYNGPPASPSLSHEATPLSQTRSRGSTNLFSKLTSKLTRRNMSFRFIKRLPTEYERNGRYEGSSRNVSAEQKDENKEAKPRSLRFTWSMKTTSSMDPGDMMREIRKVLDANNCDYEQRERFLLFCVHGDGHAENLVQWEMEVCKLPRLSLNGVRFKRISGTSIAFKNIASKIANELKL"}, "MLTK (human)": {"target": "MLTK (human) (UniProt Q9NYL2)"}, "NEK9 (human)": {"target": "NEK9 (human) (UniProt Q8TD19)"}, "NUAK1 (human)": {"target": "NUAK1 (human) (UniProt O60285)"}, "PAK7 (human)": {"target": "PAK7 (human) (UniProt Q9P286)", "sequence (Q9P286 whole entry, looked up)": "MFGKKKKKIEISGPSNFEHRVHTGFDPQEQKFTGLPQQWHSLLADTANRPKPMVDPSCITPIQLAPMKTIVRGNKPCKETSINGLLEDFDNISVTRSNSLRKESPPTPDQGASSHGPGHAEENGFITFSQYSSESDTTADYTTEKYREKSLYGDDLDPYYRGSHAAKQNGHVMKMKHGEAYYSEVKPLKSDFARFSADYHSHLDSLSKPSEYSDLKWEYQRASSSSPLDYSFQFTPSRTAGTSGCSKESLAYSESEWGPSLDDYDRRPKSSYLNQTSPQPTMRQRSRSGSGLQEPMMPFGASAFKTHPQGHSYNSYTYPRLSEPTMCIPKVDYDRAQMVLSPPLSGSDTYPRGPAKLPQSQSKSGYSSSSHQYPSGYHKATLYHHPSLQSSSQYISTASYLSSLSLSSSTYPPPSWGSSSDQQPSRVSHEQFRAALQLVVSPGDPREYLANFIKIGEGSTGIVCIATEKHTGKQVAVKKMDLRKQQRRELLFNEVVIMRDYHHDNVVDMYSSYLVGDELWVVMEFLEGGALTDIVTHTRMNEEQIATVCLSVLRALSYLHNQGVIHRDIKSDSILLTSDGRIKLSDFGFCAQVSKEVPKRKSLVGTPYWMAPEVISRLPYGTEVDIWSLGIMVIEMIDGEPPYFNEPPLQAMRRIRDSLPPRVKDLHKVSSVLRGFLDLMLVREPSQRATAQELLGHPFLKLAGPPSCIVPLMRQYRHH"}, "PI4KB (human)": {"target": "PI4KB (human) (UniProt Q9UBF8)"}, "PIK3C2B (human)": {"target": "PIK3C2B (human) (UniProt O00750)"}, "PIK3CD (human)": {"target": "PIK3CD (human) (UniProt O00329)", "sequence (O00329 whole entry, looked up)": "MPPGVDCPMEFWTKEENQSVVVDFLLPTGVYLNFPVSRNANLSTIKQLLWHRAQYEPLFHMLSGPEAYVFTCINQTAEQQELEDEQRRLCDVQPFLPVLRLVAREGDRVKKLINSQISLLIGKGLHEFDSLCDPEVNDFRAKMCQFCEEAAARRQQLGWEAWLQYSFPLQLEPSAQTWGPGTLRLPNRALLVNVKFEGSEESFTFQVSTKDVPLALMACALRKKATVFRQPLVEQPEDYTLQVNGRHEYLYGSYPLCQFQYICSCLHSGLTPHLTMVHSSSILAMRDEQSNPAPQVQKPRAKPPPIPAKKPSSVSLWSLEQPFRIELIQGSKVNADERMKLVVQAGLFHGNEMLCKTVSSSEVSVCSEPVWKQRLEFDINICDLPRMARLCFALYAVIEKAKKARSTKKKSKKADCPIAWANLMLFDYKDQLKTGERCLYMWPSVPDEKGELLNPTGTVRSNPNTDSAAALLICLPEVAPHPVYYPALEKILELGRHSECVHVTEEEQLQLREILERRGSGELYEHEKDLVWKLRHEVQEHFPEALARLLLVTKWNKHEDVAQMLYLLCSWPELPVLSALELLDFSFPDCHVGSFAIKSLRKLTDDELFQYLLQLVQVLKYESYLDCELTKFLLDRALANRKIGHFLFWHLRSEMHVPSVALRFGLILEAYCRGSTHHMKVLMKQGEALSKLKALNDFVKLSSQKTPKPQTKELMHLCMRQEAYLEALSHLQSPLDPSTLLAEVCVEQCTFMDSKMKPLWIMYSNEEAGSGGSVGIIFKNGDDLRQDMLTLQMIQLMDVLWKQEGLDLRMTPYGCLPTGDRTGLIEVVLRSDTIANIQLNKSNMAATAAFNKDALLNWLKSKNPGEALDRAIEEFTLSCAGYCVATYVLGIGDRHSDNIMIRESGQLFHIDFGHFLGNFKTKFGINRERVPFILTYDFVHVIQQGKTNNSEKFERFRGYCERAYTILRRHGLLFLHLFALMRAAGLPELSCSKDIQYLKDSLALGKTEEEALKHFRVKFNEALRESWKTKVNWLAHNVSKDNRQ"}, "PIM1 (human)": {"target": "PIM1 (human) (UniProt P11309)"}, "PKN2 (human)": {"target": "PKN2 (human) (UniProt Q16513)"}, "PRKD3 (human)": {"target": "PRKD3 (human) (UniProt O94806)"}, "PTK2 (human)": {"target": "PTK2 (human) (UniProt Q05397)"}, "RIOK2 (human)": {"target": "RIOK2 (human) (UniProt Q9BVS4)"}, "SIK1 (human)": {"target": "SIK1 (human) (UniProt P57059)"}, "SIK3 (human)": {"target": "SIK3 (human) (UniProt Q9Y2K2)"}, "STK25 (human)": {"target": "STK25 (human) (UniProt O00506)"}, "STK32A (human)": {"target": "STK32A (human) (UniProt Q8WU08)"}, "TNIK (human)": {"target": "TNIK (human) (UniProt Q9UKE5)", "sequence (Q9UKE5 whole entry, looked up)": "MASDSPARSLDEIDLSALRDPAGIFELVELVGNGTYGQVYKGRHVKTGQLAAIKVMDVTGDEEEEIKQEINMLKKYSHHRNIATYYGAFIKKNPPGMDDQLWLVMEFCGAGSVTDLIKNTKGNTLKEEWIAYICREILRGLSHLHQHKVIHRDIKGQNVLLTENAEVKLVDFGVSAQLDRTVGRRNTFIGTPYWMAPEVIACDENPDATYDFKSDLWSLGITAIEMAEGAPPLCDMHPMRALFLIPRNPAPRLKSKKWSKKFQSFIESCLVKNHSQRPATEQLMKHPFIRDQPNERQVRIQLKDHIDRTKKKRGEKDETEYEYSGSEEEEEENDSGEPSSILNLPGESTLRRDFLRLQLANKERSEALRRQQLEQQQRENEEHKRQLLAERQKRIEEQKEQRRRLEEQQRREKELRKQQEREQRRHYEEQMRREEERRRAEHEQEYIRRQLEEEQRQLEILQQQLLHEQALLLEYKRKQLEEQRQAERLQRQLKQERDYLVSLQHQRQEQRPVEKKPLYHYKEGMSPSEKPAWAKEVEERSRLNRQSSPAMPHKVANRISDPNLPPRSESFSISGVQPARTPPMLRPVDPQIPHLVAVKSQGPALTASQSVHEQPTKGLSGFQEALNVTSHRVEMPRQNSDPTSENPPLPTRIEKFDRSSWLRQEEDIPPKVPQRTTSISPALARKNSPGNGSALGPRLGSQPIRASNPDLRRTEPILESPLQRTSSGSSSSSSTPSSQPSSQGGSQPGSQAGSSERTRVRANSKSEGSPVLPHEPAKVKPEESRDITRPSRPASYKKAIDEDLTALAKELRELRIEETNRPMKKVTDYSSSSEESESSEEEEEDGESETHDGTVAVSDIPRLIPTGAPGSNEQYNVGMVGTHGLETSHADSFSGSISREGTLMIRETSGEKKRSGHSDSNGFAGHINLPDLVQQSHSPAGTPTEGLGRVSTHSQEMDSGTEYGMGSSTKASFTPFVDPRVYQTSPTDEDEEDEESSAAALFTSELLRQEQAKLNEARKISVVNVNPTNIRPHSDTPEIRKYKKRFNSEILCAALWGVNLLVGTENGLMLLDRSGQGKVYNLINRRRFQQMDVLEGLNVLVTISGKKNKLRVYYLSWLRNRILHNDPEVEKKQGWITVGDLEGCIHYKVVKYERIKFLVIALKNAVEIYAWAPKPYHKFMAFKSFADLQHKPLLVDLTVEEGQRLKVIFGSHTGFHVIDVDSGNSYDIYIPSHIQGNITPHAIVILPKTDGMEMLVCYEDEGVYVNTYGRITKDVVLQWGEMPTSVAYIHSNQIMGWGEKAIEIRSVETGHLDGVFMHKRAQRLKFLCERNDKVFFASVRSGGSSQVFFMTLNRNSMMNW"}, "ZAP70 (human)": {"target": "ZAP70 (human) (UniProt P43403)"}}}
{"smiles": "COC(=O)Nc1ccc(-c2nc(N3CCOCC3)c3cnn(C4CCN(C(=O)OC)CC4)c3n2)cc1", "values": [{"measurement": "kinase still bound, per cent of control", "setting": "[1]", "result": 100, "unit": "%"}, {"measurement": "kinase still bound, per cent of control", "setting": "AKT1 (human)", "result": 82, "unit": "%"}, {"measurement": "kinase still bound, per cent of control", "setting": "AURKC (human)", "result": 100, "unit": "%"}, {"measurement": "kinase still bound, per cent of control", "setting": "BMP2K (human)", "result": 99, "unit": "%"}, {"measurement": "kinase still bound, per cent of control", "setting": "BMPR1B (human)", "result": 78, "unit": "%"}, {"measurement": "per cent of control", "setting": "CDC2L2 (human)", "result": 100, "unit": "%"}, {"measurement": "kinase still bound, per cent of control", "setting": "CDC42BPG (human)", "result": 100, "unit": "%"}, {"measurement": "per cent of control", "setting": "CDK5 (human)", "result": 100, "unit": "%"}, {"measurement": "per cent of control", "setting": "CDK9 (human)", "result": 100, "unit": "%"}, {"measurement": "kinase still bound, per cent of control", "setting": "DAPK3 (human)", "result": 92, "unit": "%"}, {"measurement": "kinase still bound, per cent of control", "setting": "[2]", "result": 100, "unit": "%"}, {"measurement": "kinase still bound, per cent of control", "setting": "[3]", "result": 88, "unit": "%"}, {"measurement": "kinase still bound, per cent of control", "setting": "EPHA7 (human)", "result": 94, "unit": "%"}, {"measurement": "kinase still bound, per cent of control", "setting": "FES (human)", "result": 100, "unit": "%"}, {"measurement": "kinase still bound, per cent of control", "setting": "FLT4 (human)", "result": 92, "unit": "%"}, {"measurement": "kinase still bound, per cent of control", "setting": "FYN (human)", "result": 99, "unit": "%"}, {"measurement": "kinase still bound, per cent of control", "setting": "[4]", "result": 96, "unit": "%"}, {"measurement": "kinase still bound, per cent of control", "setting": "LIMK2 (human)", "result": 94, "unit": "%"}, {"measurement": "kinase still bound, per cent of control", "setting": "LTK (human)", "result": 87, "unit": "%"}, {"measurement": "kinase still bound, per cent of control", "setting": "MAP3K10 (human)", "result": 100, "unit": "%"}, {"measurement": "kinase still bound, per cent of control", "setting": "MAP4K3 (human)", "result": 74, "unit": "%"}, {"measurement": "kinase still bound, per cent of control", "setting": "MAP4K4 (human)", "result": 88, "unit": "%"}, {"measurement": "kinase still bound, per cent of control", "setting": "MARK3 (human)", "result": 100, "unit": "%"}, {"measurement": "kinase still bound, per cent of control", "setting": "MLTK (human)", "result": 97, "unit": "%"}, {"measurement": "kinase still bound, per cent of control", "setting": "NEK9 (human)", "result": 98, "unit": "%"}, {"measurement": "kinase still bound, per cent of control", "setting": "NUAK1 (human)", "result": 72, "unit": "%"}, {"measurement": "kinase still bound, per cent of control", "setting": "PAK7 (human)", "result": 80, "unit": "%"}, {"measurement": "kinase still bound, per cent of control", "setting": "PI4KB (human)", "result": 100, "unit": "%"}, {"measurement": "kinase still bound, per cent of control", "setting": "PIK3C2B (human)", "result": 100, "unit": "%"}, {"measurement": "kinase still bound, per cent of control", "setting": "PIK3CD (human)", "result": 40, "unit": "%"}, {"measurement": "kinase still bound, per cent of control", "setting": "PIM1 (human)", "result": 100, "unit": "%"}, {"measurement": "kinase still bound, per cent of control", "setting": "PKN2 (human)", "result": 100, "unit": "%"}, {"measurement": "kinase still bound, per cent of control", "setting": "PRKD3 (human)", "result": 100, "unit": "%"}, {"measurement": "kinase still bound, per cent of control", "setting": "PTK2 (human)", "result": 94, "unit": "%"}, {"measurement": "kinase still bound, per cent of control", "setting": "RIOK2 (human)", "result": 79, "unit": "%"}, {"measurement": "kinase still bound, per cent of control", "setting": "SIK1 (human)", "result": 100, "unit": "%"}, {"measurement": "kinase still bound, per cent of control", "setting": "SIK3 (human)", "result": 83, "unit": "%"}, {"measurement": "kinase still bound, per cent of control", "setting": "STK25 (human)", "result": 78, "unit": "%"}, {"measurement": "kinase still bound, per cent of control", "setting": "STK32A (human)", "result": 100, "unit": "%"}, {"measurement": "kinase still bound, per cent of control", "setting": "TNIK (human)", "result": 95, "unit": "%"}, {"measurement": "kinase still bound, per cent of control", "setting": "ZAP70 (human)", "result": 98, "unit": "%"}]}
{"smiles": "COc1ccc(-c2ccc3c(N4CCOCC4)nc(N4C[C@@H](C)O[C@@H](C)C4)nc3n2)cc1CO", "values": [{"measurement": "kinase still bound, per cent of control", "setting": "[1]", "result": 100, "unit": "%"}, {"measurement": "kinase still bound, per cent of control", "setting": "AKT1 (human)", "result": 88, "unit": "%"}, {"measurement": "kinase still bound, per cent of control", "setting": "AURKC (human)", "result": 100, "unit": "%"}, {"measurement": "kinase still bound, per cent of control", "setting": "BMP2K (human)", "result": 98, "unit": "%"}, {"measurement": "kinase still bound, per cent of control", "setting": "BMPR1B (human)", "result": 99, "unit": "%"}, {"measurement": "per cent of control", "setting": "CDC2L2 (human)", "result": 100, "unit": "%"}, {"measurement": "kinase still bound, per cent of control", "setting": "CDC42BPG (human)", "result": 65, "unit": "%"}, {"measurement": "per cent of control", "setting": "CDK5 (human)", "result": 100, "unit": "%"}, {"measurement": "per cent of control", "setting": "CDK9 (human)", "result": 98, "unit": "%"}, {"measurement": "kinase still bound, per cent of control", "setting": "DAPK3 (human)", "result": 89, "unit": "%"}, {"measurement": "kinase still bound, per cent of control", "setting": "[2]", "result": 82, "unit": "%"}, {"measurement": "kinase still bound, per cent of control", "setting": "[3]", "result": 66, "unit": "%"}, {"measurement": "kinase still bound, per cent of control", "setting": "EPHA7 (human)", "result": 86, "unit": "%"}, {"measurement": "kinase still bound, per cent of control", "setting": "FES (human)", "result": 99, "unit": "%"}, {"measurement": "kinase still bound, per cent of control", "setting": "FLT4 (human)", "result": 100, "unit": "%"}, {"measurement": "kinase still bound, per cent of control", "setting": "FYN (human)", "result": 96, "unit": "%"}, {"measurement": "kinase still bound, per cent of control", "setting": "[4]", "result": 90, "unit": "%"}, {"measurement": "kinase still bound, per cent of control", "setting": "LIMK2 (human)", "result": 94, "unit": "%"}, {"measurement": "kinase still bound, per cent of control", "setting": "LTK (human)", "result": 96, "unit": "%"}, {"measurement": "kinase still bound, per cent of control", "setting": "MAP3K10 (human)", "result": 98, "unit": "%"}, {"measurement": "kinase still bound, per cent of control", "setting": "MAP4K3 (human)", "result": 85, "unit": "%"}, {"measurement": "kinase still bound, per cent of control", "setting": "MAP4K4 (human)", "result": 88, "unit": "%"}, {"measurement": "kinase still bound, per cent of control", "setting": "MARK3 (human)", "result": 96, "unit": "%"}, {"measurement": "kinase still bound, per cent of control", "setting": "MLTK (human)", "result": 100, "unit": "%"}, {"measurement": "kinase still bound, per cent of control", "setting": "NEK9 (human)", "result": 89, "unit": "%"}, {"measurement": "kinase still bound, per cent of control", "setting": "NUAK1 (human)", "result": 76, "unit": "%"}, {"measurement": "kinase still bound, per cent of control", "setting": "PAK7 (human)", "result": 76, "unit": "%"}, {"measurement": "kinase still bound, per cent of control", "setting": "PI4KB (human)", "result": 100, "unit": "%"}, {"measurement": "kinase still bound, per cent of control", "setting": "PIK3C2B (human)", "result": 85, "unit": "%"}, {"measurement": "kinase still bound, per cent of control", "setting": "PIK3CD (human)", "result": 0.95, "unit": "%"}, {"measurement": "kinase still bound, per cent of control", "setting": "PIM1 (human)", "result": 94, "unit": "%"}, {"measurement": "kinase still bound, per cent of control", "setting": "PKN2 (human)", "result": 100, "unit": "%"}, {"measurement": "kinase still bound, per cent of control", "setting": "PRKD3 (human)", "result": 85, "unit": "%"}, {"measurement": "kinase still bound, per cent of control", "setting": "PTK2 (human)", "result": 95, "unit": "%"}, {"measurement": "kinase still bound, per cent of control", "setting": "RIOK2 (human)", "result": 60, "unit": "%"}, {"measurement": "kinase still bound, per cent of control", "setting": "SIK1 (human)", "result": 90, "unit": "%"}, {"measurement": "kinase still bound, per cent of control", "setting": "SIK3 (human)", "result": 97, "unit": "%"}, {"measurement": "kinase still bound, per cent of control", "setting": "STK25 (human)", "result": 100, "unit": "%"}, {"measurement": "kinase still bound, per cent of control", "setting": "STK32A (human)", "result": 67, "unit": "%"}, {"measurement": "kinase still bound, per cent of control", "setting": "TNIK (human)", "result": 100, "unit": "%"}, {"measurement": "kinase still bound, per cent of control", "setting": "ZAP70 (human)", "result": 83, "unit": "%"}]}
